Measured values: PMC9705075, “In Vitro characterization of the endocrine disrupting effects of per- and poly-fluoroalkyl substances (PFASs) on the human androgen receptor” (Journal of hazardous materials, 2022)

Assays:
AR = test system: AR; parameters: method as in Kjeldsen and Bonefeld-Jørgensen, 2013; settings: in vitro study; ref Kjeldsen and Bonefeld-Jørgensen, 2013; cited from earlier work
[1] = target: T1, human androgen receptor (hAR) (Homo sapiens, UniProt P10275); test: Mechanism of AR inhibition: testosterone dose-response curves in presence of test chemical, luciferase reporter, MDA-kb2 cells; type: cell-based; settings: highest noncytotoxic concentration: 15 μM NON, HEP, OCT, NNN; 1 μM FLO; 0.05 μM OHF
T1 sequence (P10275 whole entry): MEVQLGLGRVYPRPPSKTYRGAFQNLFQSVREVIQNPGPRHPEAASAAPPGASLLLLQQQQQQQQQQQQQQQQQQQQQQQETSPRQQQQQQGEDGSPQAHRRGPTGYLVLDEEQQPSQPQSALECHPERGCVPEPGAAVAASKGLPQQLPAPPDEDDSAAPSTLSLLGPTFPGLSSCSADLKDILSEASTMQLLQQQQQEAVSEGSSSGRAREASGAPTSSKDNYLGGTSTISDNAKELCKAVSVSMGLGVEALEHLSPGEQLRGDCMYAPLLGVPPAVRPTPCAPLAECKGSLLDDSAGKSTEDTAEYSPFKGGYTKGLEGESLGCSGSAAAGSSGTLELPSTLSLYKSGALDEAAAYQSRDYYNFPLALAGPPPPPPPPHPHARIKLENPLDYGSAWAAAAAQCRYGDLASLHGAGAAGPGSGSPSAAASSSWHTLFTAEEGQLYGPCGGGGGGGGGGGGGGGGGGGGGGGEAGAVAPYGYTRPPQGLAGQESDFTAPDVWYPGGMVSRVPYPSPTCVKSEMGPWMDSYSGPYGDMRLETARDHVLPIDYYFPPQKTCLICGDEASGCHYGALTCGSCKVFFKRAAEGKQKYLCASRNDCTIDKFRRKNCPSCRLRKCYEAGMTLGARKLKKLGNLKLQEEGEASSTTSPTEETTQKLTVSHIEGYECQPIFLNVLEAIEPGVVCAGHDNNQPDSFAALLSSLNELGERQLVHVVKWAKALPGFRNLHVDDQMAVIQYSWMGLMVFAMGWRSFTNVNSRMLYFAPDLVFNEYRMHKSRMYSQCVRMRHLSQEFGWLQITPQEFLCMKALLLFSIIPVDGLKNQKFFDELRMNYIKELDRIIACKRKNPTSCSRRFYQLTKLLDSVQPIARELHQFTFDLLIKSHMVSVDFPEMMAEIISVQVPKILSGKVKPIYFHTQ

[2] = test system: PSA, FKBP5 and AR mRNA in VCaP human prostate cancer cells; test: Expression of androgen responsive genes (real-time PCR) in VCaP cells; type: cell-based; settings: 24 h; for testosterone induced expression of FKBP5 / testosterone induced expression of PSA: 1 and 5 μM PFAS with […] testosterone; for testosterone induced expression of FKBP5 / testosterone induced expression of PSA / expression of AR: 10% CD FBS; for expression of AR: PFAS (1 and 5 μM) or 50 nM OHF with […] testosterone
Protocol: VCaP cells were cultured in phenol red-free DMEM supplemented with 10% charcoal-dextran stripped FBS (10% CD FBS, Hyclone, USA) and 1% L-glutamine (Gibco, Grand Island, NY) for 3 days prior to PFAS treatment. Cells were plated at a density of 2.0 × 10^6 cells/well in 6-well plates (CellStar, Monroe, NC) and incubated 24 h. […] After the incubation, total RNA was extracted using the RNeasy Mini Kit (Qiagen, Germantown, MD). Briefly, 2 μg of total RNA were reverse transcribed to cDNA using the SuperScript IV VILO (Thermo Scientific, Waltham, MA) and subjected to real-time PCR (Stratagene MxP3005, Agilent Technologies, Palo Alto, CA). The cDNA was amplified in 10 μL of SYBR Green real-time PCR Master Mixes (Thermofisher Scientific, Waltham, MA) according to the manufacturer’s protocol. […] The fold change of the target genes was compared to the vehicle control using the 2^−ΔΔCt method ([Livak and Schmittgen, 2001]).
Fig. 4. […] Values are expressed as the mean fold change ± S.E.M. from three independent experiments. […] Significance levels are represented with asterisk as following: *p < 0.05, **p < 0.01, ***p < 0.001, and ****p < 0.0001. The Ptrend is determined based on linear regression analysis.

[3] = test system: intracellular AR protein in VCaP cells; test: Immunoblotting of intracellular AR protein in VCaP cells; type: cell-based, human; settings: 10% FBS, 48 h exposure to PFAS
Protocol: Cells were plated at a density of 2.0 × 10^6 cells/well in 6-well plates (CellStar, Monroe, NC) and incubated 24 h.
Values are expressed as the mean fold change ± S.E.M. from three independent experiments.

[4] = target: T1, human androgen receptor (hAR); test: AR-mediated luciferase reporter gene assay, antiandrogenic effects (co-culture with […] testosterone), MDA-kb2 cells; type: cell-based; settings: for IC20: MDA-kb2, 24 h, read-out: Inhibition REC20
MDA-kb2 cells = test: Cell viability (colorimetric MTT) assay; type: cell-based, human
Protocol: The cytotoxic effect of PFASs was measured by a colorimetric MTT assay as described previously ([Tachachartvanich et al., 2020]). Briefly, MDA-kb2 cells were plated at a density of 3.0 × 10^4 cells/well in clear 96-well plates (Thermo Scientific, Waltham, MA). After 24 h incubation, cells were treated with PFASs at concentrations ranging from 0.1 to 100 μM in triplicate per treatment. The optical density was assessed at 570 nm with reference wavelength of 650 nm using microplate spectrophotometer (Tecan Infinite® 200PRO, Austria). All cytotoxicity experiments were performed side-by-side with the corresponding cell culture assays and repeated at least three times in a separate independent setup.

AR and PSA expression = test system: AR and PSA expression; parameters: method as in Kharlyngdoh et al. (2015); settings: at 1 μM; ref Kharlyngdoh et al. (2015); cited from earlier work

## O=S(=O)(O)C(F)(F)C(F)(F)C(F)(F)C(F)(F)C(F)(F)C(F)(F)F [PFHxS, perfluorohexane sulfonate]
AR
  RIC20, antiandrogenic effect: ~19 µM

## O=C(O)C(F)(F)C(F)(F)C(F)(F)C(F)(F)C(F)(F)C(F)(F)C(F)(F)C(F)(F)F [PFNA, perfluorononanoate]
AR
  RIC20, antiandrogenic effect: ~44 µM

## O=c1cc(C(F)(F)C(F)(F)C(F)(F)C(F)(F)F)c2cc3c4c(c2o1)CCCN4CCC3 [NON, 9-(Nonafluorobutyl)-2,3,6,7-tetrahydro-1H,5H,11H-pyrano[2,3-f]pyrido[3,2,1-ij]quinolin-11-one]
[1]
  effect on dose response curve of testosterone: rightward parallel shift
[2]
  testosterone induced expression of FKBP5: significantly and concentration dependently decreased
  testosterone induced expression of PSA: significantly and concentration dependently decreased
[3]
  AR protein level, normal conditions: significantly decreased the AR protein
[4]
  IC20: 10.5 µM

## Oc1ccc(/N=N/c2ccc(-c3ccc(C(F)(F)C(F)(F)C(F)(F)F)cc3)cc2)c(F)c1 [FLO, 3-Fluoro-4-{(E)-[4'-(heptafluoropropyl) [1,1'-biphenyl]-4-yl]diazenyl}phenol]
[1]
  effect on dose response curve of testosterone: did not change the dose response curves
MDA-kb2 cells
  cytotoxicity: relatively high cytotoxicity

## FC(F)(F)C(F)(F)C(F)(F)c1nc2ccccc2nc1-c1ccccc1 [HEP, 2-(Heptafluoropropyl)-3-phenylquinoxaline]
[1]
  effect on dose response curve of testosterone: rightward parallel shift
[2]
  testosterone induced expression of FKBP5: significantly and concentration dependently decreased
  testosterone induced expression of PSA: significantly and concentration dependently decreased
[3]
  AR protein level, normal conditions: significantly decreased the AR protein
[4]
  IC20: 3.08 µM

## Fc1c(F)c(F)c2c(F)c(F)c(F)c(F)c2c1F [OCT, Octafluoronaphthalene]
[1]
  effect on dose response curve of testosterone: did not change the dose response curves

## C=CCOc1c(Br)cc(Br)cc1Br [ATE, allyl 2,4,6-tribromophenyl ether]
AR and PSA expression
  AR expression: significantly increased AR expression

## O=C(O)C(F)(F)C(F)(F)C(F)(F)C(F)(F)C(F)(F)C(F)(F)C(F)(F)C(F)(F)C(F)(F)F [PFDA, perfluorodecanoate]
AR
  RIC20, antiandrogenic effect: ~24 µM

## O=C(O)C(F)(F)C(F)(F)C(F)(F)C(F)(F)C(F)(F)C(F)(F)C(F)(F)F [PFOA, perfluorooctanoic acid]
AR
  RIC20, antiandrogenic effect: around 10 μM

## O=C(Nc1ccc([N+](=O)[O-])cc1)C(F)(F)C(F)(F)C(F)(F)C(F)(F)F [NNN, 2,2,3,3,4,4,5,5,5-Nonafluoro-N-(4 nitrophenyl)pentanamide]
[1]
  effect on dose response curve of testosterone: rightward parallel shift
[2]; 1 μM with […] testosterone
  AR expression at 1 μM: did not significantly affect AR expression
[2]
  testosterone induced expression of FKBP5: significantly and concentration dependently decreased
  testosterone induced expression of PSA: significantly and concentration dependently decreased
  expression of AR: upregulating the expression of AR
[3]
  AR protein level, normal conditions: did not significantly affect cellular AR protein levels
[4]
  IC20: 2.78 µM
[4]; MDA-kb2, read-out: inhibition of AR transactivation
  inhibition at 10 µM: ~25%

## C=C(Br)COc1c(Br)cc(Br)cc1Br [BATE, 2-bromoallyl 2,4,6-tribromophenyl ether]
AR and PSA expression
  AR expression: significantly increased AR expression

## CC(C)(O)C(=O)Nc1ccc([N+](=O)[O-])c(C(F)(F)F)c1 [OHF, hydroxyflutamide, reference compound]
[1]
  effect on dose response curve of testosterone: the most parallel shift
[2]
  expression of AR: upregulating the expression of AR
